Experimental findings from ChEMBL document CHEMBL1126444, “Synthesis and structure-activity relationships of heterocyclic analogues of the functional M1 selective muscarinic agonist hexyloxy-TZTP” (Bioorg Med Chem Lett, 1992) are described below.

Experiment [1] concerns the target Muscarinic acetylcholine receptor. As to the kind of experiment: Displacement of [3H]-OXO-M (oxotremorine-M) from the central muscarinic receptor sites of the rat brain membranes. Type of experiment: cell membranes, Membrane.
Experiment [2] concerns the target T1, Muscarinic acetylcholine receptor M1 (Rattus norvegicus, UniProt P08482).
T1 sequence (P08482 whole entry): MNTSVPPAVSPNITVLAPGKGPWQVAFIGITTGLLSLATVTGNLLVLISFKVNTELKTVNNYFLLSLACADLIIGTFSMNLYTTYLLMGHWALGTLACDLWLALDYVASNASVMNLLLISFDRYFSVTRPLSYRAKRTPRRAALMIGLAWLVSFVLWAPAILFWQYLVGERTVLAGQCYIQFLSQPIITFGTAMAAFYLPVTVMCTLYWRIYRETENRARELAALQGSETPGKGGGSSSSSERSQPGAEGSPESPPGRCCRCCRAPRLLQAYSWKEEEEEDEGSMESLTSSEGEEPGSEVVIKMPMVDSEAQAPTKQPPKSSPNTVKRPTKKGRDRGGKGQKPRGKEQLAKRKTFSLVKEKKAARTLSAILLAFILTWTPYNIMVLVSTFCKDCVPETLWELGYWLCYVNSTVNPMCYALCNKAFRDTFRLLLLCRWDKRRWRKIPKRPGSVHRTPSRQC
As to the kind of experiment: Displacement of [3H]-Pz (pirenzepine) from the muscarinic receptor M1 of the rat hippocampus. Type of experiment: tissue-based. On the technique in general: Displacement assays read how much labelled ligand stays bound in the presence of the test substance.

Experiment [3] is filed under the species Oryctolagus cuniculus. The experiment can be described thus: Percent maximum inhibition of the twitch response in the electrically stimulated rabbit vas deferens was determined. Type of experiment: functional.
The species entered for experiment [4] is Oryctolagus cuniculus. The experiment can be described thus: Compound was evaluated for the inhibition of the twitch response in the electrically stimulated rabbit vas deferens. Type of experiment: functional.

By IC50 is commonly meant the point on the concentration scale where inhibition reaches its midpoint. Low readings indicate greater potency, high ones weaker potency. In general, Inhibition refers to the drop in the measured response relative to a control, in per cent. Lower therefore signals a weak effect.

Molecules are shown by their SMILES.

With `CCCCOc1nsnc1C1=CCCN(C)C1`, in experiment [1], the IC50 worked out at 1.4 nM.

For `CCCCCCOc1nscc1C1=CCCN(C)C1`, the concentration for half-maximal inhibition (IC50) in experiment [1] is over 900 nM; in experiment [2], 715 nM. In the experiment filed under Oryctolagus cuniculus [3], this compound yielded an Inhibition of 43%.

For `CCCCOc1noc(C)c1C1=CCCN(C)C1`, the IC50 in experiment [1] amounted to 759 nM. That is a sub-micromolar value.

Turning to `CCCCCCOc1cscc1C1=CCCN(C)C1`, the IC50 in experiment [1] was over 900 nM; in experiment [2], 663 nM; in the experiment listed under Oryctolagus cuniculus [4], 39 µM. This compound gave an Inhibition in the experiment filed under Oryctolagus cuniculus [3] of 93%.

Take `CCCCOc1nscc1C1=CCCN(C)C1`: the IC50 amounted to 544 nM in experiment [1] and 565 nM in experiment [2]. In the experiment filed under Oryctolagus cuniculus [3], this compound came in with an Inhibition of 18%.

Regarding `CCCCOc1cscc1C1=CCCN(C)C1`, the IC50 in experiment [1] amounted to 477 nM; in experiment [2], 369 nM. The compound also gave an Inhibition in the experiment listed under Oryctolagus cuniculus [3] of 18%.

As for `C[N+](C)(C)CC#CCOC(=O)Nc1cccc(Cl)c1.[Cl-]`, in experiment [1], the IC50 stood at 355 nM. In the experiment filed under Oryctolagus cuniculus [3], this compound gave an Inhibition of 91%.

Consider `CCCCCCOc1nonc1C1=CCCN(C)C1`, for which, in experiment [1], the IC50 came to 70 nM. Besides, the Inhibition in the experiment filed under Oryctolagus cuniculus [3] was determined as 47%.

With `CCCCOc1nonc1C1=CCCN(C)C1`, the IC50 in experiment [1] came to 24 nM. Besides, the Inhibition in the experiment listed under Oryctolagus cuniculus [3] was found to be 12%.

`CCCCCCOc1nsnc1C1=CCCN(C)C1` [XANOMELINE]: the Inhibition in the experiment filed under Oryctolagus cuniculus [3] is 88%.
